Experimental data reported in article PMC7038234, “Screening of Natural Extracts for Inhibitors against Japanese Encephalitis Virus Infection” (Antimicrobial Agents and Chemotherapy, 2020).
Where two headings read alike, the source gives them in different places.

Key:
[1] = Cytotoxicity / cell viability on Vero cells; settings: African green monkey
[2] = test system: JEV strains AT31 and SA14; assay: Plaque assay of virus production in culture supernatants (Vero, Huh-7, U251 cells); assay type: cell-based, Japanese encephalitis virus
JEV strain SA14 [3] = assay: qRT-PCR of JEV RNA levels in Vero cell lysates; assay type: cell-based, Japanese encephalitis virus; settings: Vero cells, high-, middle- and low-dose-treated groups
JEV (AT31) = assay: Antiviral efficacy in JEV-infected BALB/c mice; assay type: in vivo, BALB/c mouse
Method: Adult male BALB/c mice (4 weeks) were randomly divided into three groups: the JEV-infected and vehicle (0.75% DMSO in normal saline)-treated group, the JEV-infected and ouabain-treated group, and the ouabain-treated group. For infection, mice were infected intraperitoneally (i.p.) with a dose of 1 × 10^6 PFU JEV (AT31). The infected mice were i.p. administered with ouabain at 3 mg/kg of body weight or a vehicle control every day for 21 consecutive days. Mice were sacrificed at day 1, 3, 7, 10, or 21, depending on the experimental design. Blood, spleen, and brain samples were collected for plaque assay, qRT-PCR, and histopathology investigation (Vectra ss; PerkinElmer).
The viral burden was determined by plaque assay. The samples were weighed and homogenized in 300 μl of PBS. The homogenates were clarified by centrifugation (2,000 × g at 4°C) for 15 min and then diluted serially prior to infection of BHK-21 cells. The viral titer was adjusted for sample volume and tissue weight to calculate the titer as PFU/g.
Tissue samples and blood from JEV-infected mice were extracted with the RNAprep pure tissue kit (Tiangen; catalog no. DP431) and RNAprep pure blood kit (Tiangen; catalog no. DP433), respectively. JEV RNA levels were determined by one-step qRT-PCR on ABI Real-Time PCR systems using standard cycling conditions. The viral burden was calculated on a standard curve produced using serial 10-fold dilutions of plasmids carrying the infectious clone.
For histopathology investigation, brain tissues were collected from the mice and fixed in 4% paraformaldehyde; the hematoxylin-eosin staining protocol was followed for tissue staining.

JEV [4] = assay type: cell-based, Japanese encephalitis virus
JEV AT31 = assay: Addition of sodium and potassium assay (plaque assay); settings: Vero cells, AT31, NaCl 0-100 mM, KCl 0-25 mM
JEV SA14 replicon = assay: JEV reporter replicon assay (Renilla luciferase) in Huh-7 cells; settings: for JEV RNA synthesis (replicon luciferase signal): 24 h postelectroporation
JEV strain SA14 [5] = assay: Immunofluorescence staining assay (IFA), SA14 infection of Vero cells
JEV [6] = settings: cited from earlier work
[7] = JEV-infected BALB/c mice, ouabain 3 mg/kg i.p. daily, 21 days

**Q.** For `O[C@H]1[C@H]2c3cc4c(cc3CN3CCC(=C[C@@H]1O)[C@H]23)OCO4` [lycorine], which CC50 [1] is on record?
**A.** > 100 µM

**Q.** For `Cc1cc(O)c2c(c1)C(=O)c1cc(O)cc(O)c1C2=O` [emodin], which CC50 [1] is on record?
**A.** > 100 µM

**Q.** Which CC50 [1] does the source give for `COc1cc2c(c(OC)c1OC)-c1c(cc(OC)c(OC)c1OC)C[C@H](C)[C@H](C)C2` [schizandrin A] here?
**A.** 100 µM

**Q.** With `Oc1cc(O)c2c(c1)OC(c1ccc(O)c(O)c1)C(OC1(c3ccc(O)c(O)c3)Oc3cc(O)cc(O)c3C(O)C1O)C2` (centres unmarked) [procyanidin] as the molecule, how does the CC50 [1] read?
**A.** > 100 µM

**Q.** For `C[C@@H]1O[C@@H](O[C@H]2C[C@@H](O)[C@]3(CO)[C@H]4[C@H](O)C[C@]5(C)[C@@H](C6=CC(=O)OC6)CC[C@]5(O)[C@@H]4CC[C@]3(O)C2)[C@H](O)[C@H](O)[C@H]1O` [ouabain], which “reduction of AT31 and SA14 virus production” value [2] is on record?
**A.** 4 to 6 log units

**Q.** What about the “attenuated RNA levels of the SA14 strain” value (JEV strain SA14 [3]) of the same molecule?
**A.** above 40%

**Q.** And the animals survived (JEV (AT31); [7])?
**A.** 8 out of 14

**Q.** And the survival rate (JEV (AT31); [7])?
**A.** ~60%

**Q.** What about the “histopathological changes in brain” value (JEV (AT31); day 7 postinfection, meningitis, perivascular cuffing, vacuolar degeneration) of the same molecule?
**A.** remarkably alleviated

**Q.** What about the “plaques from brain on day 21 postinfection” value (JEV (AT31); day 21 postinfection, plaque assay) of the same molecule?
**A.** no plaques formed

**Q.** And the “viral load in brain (plaque assay)” value (JEV (AT31); days 7, 10 and 21 postinfection, versus untreated infected mice)?
**A.** significantly reduced viral load

**Q.** And the “effect on viral titers in the brain at the preclinical stage” value (JEV (AT31); qRT-PCR, days 1 and 3 postinfection)?
**A.** little effect

**Q.** And the “effect on decreasing viral titers in the blood and spleen” value (JEV (AT31); qRT-PCR, earlier time points (days 1 and 3))?
**A.** little effect

**Q.** What about the “behavior of mice treated with ouabain alone” value (JEV (AT31); uninfected BALB/c mice, ouabain 3 mg/kg i.p. daily) of the same molecule?
**A.** little abnormal behavior

**Q.** And the “adaptive (drug-resistant) mutant” value (JEV [4])?
**A.** no adaptive mutant was found

**Q.** What about the CC50 [1] of the same molecule?
**A.** > 100 µM

**Q.** And the “dependence of JEV-inhibiting effect on extracellular NaCl and KCl” value (JEV AT31)?
**A.** positively correlated with extracellular NaCl but inversely correlated with KCl

**Q.** What about the “initial translation of replicon RNA” value (JEV SA14 replicon) of the same molecule?
**A.** neither drug inhibited

**Q.** What about the “JEV RNA synthesis (replicon luciferase signal)” value (JEV SA14 replicon) of the same molecule?
**A.** inhibited JEV RNA synthesis in a dose-dependent manner

**Q.** What about the SA14 reproduction (JEV strain SA14 [5]; ouabain 98 nM) of the same molecule?
**A.** greatly inhibited

**Q.** For `COC1=CC23CCCN2CCc2cc4c(cc2C3C1O)OCO4` (centres unmarked) [cephalotaxlen], which CC50 [1] is on record?
**A.** > 100 µM

**Q.** Which JEV infection (JEV [6]) does the source give for `CCCCCCN(CCCCCC)C(=O)Cc1c(-c2ccc(F)cc2)[nH]c2ccccc12` [FGIN-1-27] here?
**A.** reduced the JEV infection in vitro

**Q.** Which “reduction of AT31 and SA14 virus production” value ([2]; Vero cells, plaque assay, highest concentration) does the source give for `C[C@H]1O[C@@H](O[C@H]2[C@@H](O)C[C@H](O[C@H]3[C@@H](O)C[C@H](O[C@H]4CC[C@@]5(C)[C@H](CC[C@@H]6[C@@H]5C[C@@H](O)[C@]5(C)[C@@H](C7=CC(=O)OC7)CC[C@]65O)C4)O[C@@H]3C)O[C@@H]2C)C[C@H](O)[C@@H]1O` [digoxin] here?
**A.** 4 to 6 log units

**Q.** What about the “attenuated RNA levels of the SA14 strain” value (JEV strain SA14 [3]) of the same molecule?
**A.** above 40%

**Q.** And the “adaptive (drug-resistant) mutant” value (JEV [4])?
**A.** no adaptive mutant was found

**Q.** And the CC50 [1]?
**A.** > 100 µM

**Q.** And the “dependence of JEV-inhibiting effect on extracellular NaCl and KCl” value (JEV AT31)?
**A.** positively correlated with extracellular NaCl but inversely correlated with KCl

**Q.** And the “initial translation of replicon RNA” value (JEV SA14 replicon)?
**A.** neither drug inhibited

**Q.** And the “JEV RNA synthesis (replicon luciferase signal)” value (JEV SA14 replicon)?
**A.** inhibited JEV RNA synthesis in a dose-dependent manner

**Q.** What about the SA14 reproduction (JEV strain SA14 [5]; digoxin 392 nM) of the same molecule?
**A.** greatly inhibited

**Q.** With `COC(=O)C1=C(C)NC(C)=C(C(=O)OCCN2CCN(C(c3ccccc3)c3ccccc3)CC2)C1c1cccc([N+](=O)[O-])c1` (centres unmarked) [manidipine] as the molecule, how does the JEV infection (JEV [6]) read?
**A.** inhibited JEV infection in vitro and in vivo

**Q.** With `COc1cc2c(c(OC)c1OC)-c1c(cc3c(c1OC)OCO3)CC(C)C(C)C2` (centres unmarked) [schizandrin B] as the molecule, how does the CC50 [1] read?
**A.** > 100 µM
